{"source": "patent US5376679A", "about": "“Bicyclic or tricyclic biocidal compounds” (Shell Internationale Research Maatschappij B.V., priority 1988, dated 1994)", "key": {"fungi": {"test_system": "fungi", "conditions": "prior art; cited from earlier work"}, "bacteria": {"test_system": "bacteria", "conditions": "prior art; cited from earlier work"}, "[1]": {"test_system": "Pseudocercosporella herpotrichoides", "test": "In vitro activity against wheat eyespot (Ph)", "assay_type": "cell-based", "parameters": "Ph: activity against wheat eyespot: scale not given here", "conditions": "for Ph: activity against wheat eyespot: in vitro, 100 ppm in agar, 11 days, activity grade 1 or 2, not defined", "protocol": "(c) Activity Against Wheat Eyespot (Pseudocercosporella herpotrichoides; Ph)\nThe test is an in vitro one. Samples are prepared wherein 0.7 mls solution containing 2 mg active material dissolved in acetone is evenly dispersed in 20 ml molten half-strength potato dextrose agar (formed by dissolving 2 g potato extract, 10 g dextrose and 7.5 g agar in 1 liter of water and sterilising for 15 minutes and 121° C.) and the resulting 20 ml portions are allowed to set in 9 cm petri dishes. The concentration of active material in the resulting samples is 100 ppm. Upon setting, two plugs of 5 mm diameter taken from the advancing edge of a stock plate of a 3 to 4 week old culture of P.herpotrichoides on full strength potato dextrose agar, incubated at 20°-22° C. in darkness, are placed, equally spaced on the surface of each sample, mycelial side uppermost. The samples are incubated for 11 days at 20°-22° C. in darkness before assessment. Diametric growth is measured with the width of the plug subtracted and results compared with growth on a sample wherein 0.7 ml acetone containing no active material is dispersed in 20 ml half-strength potato agar."}, "[2]": {"test_system": "Erysiphe graminis f.sp. hordei", "test": "Direct antisporulant activity against barley powdery mildew (Eg)", "assay_type": "in vivo", "parameters": "scale not given here", "conditions": "foliar spray, 1 kg/ha; activity grade 1 or 2, not defined", "description": "(f) Activity Against Barley Powdery Mildew (Erysiphe graminis f.sp. hordei; Eg) The test is a direct antisporulant one, using a foliar spray. Leaves of barley seedlings, cultivar Golden Promise, are inoculated by dusting with mildew conidia one day prior to treatment with the test compound. The inoculated plants are kept overnight at glasshouse ambient temperature and humidity prior to treatment. […] After drying, plants are returned to a compartment at ambient temperature and humidity for up to 7 days, followed by assessment. Assessment is based on the percentage of leaf area covered by sporulation compared with that on leaves of control plants."}, "Fusarium culmorum": {"test_system": "Fusarium culmorum", "test": "Activity against seedling wheat blight, soil drench (Fs)", "assay_type": "in vivo", "parameters": "scale not given here", "conditions": "10 kg/ha, 21 days, activity grade 1 or 2, not defined", "protocol": "(d) Activity Against Seedling Wheat Blight (Fusarium culmorum; Fs)\nThe test is an anti-sporulant one using a soil drench. Surface sterilised wheat seeds (var Waggoner) are inoculated by soaking in an aqueous suspension containing 7×10^5 spores/ml (60 mg seed per 80 ml suspension) at 22° C. for 6 hours. The seeds are then sown in pots (5 per pot) in sand at a depth of 1 cm. 1 day after inoculation and planting the active material is applied at a rate of 10 kg/ha by pouring on a soil drench (concentration 0.36 g/l active material in 12% v/v acetone/water) evenly over the sand. The pots are then transferred to a glasshouse, kept at 25° C. and watered sparingly. 21 days after inoculation the resulting seedlings are removed from the pots and their roots are gently washed. Visual assessment is made based on lesion development on stem base and upper roots in comparison with control seedlings."}, "Podosphaera leucotricha": {"test_system": "Podosphaera leucotricha", "test": "Direct antisporulant activity against apple powdery mildew (Pl)", "assay_type": "in vivo", "conditions": "foliar spray, 1 kg/ha; activity grade 1 or 2, not defined", "description": "(h) Activity Against Apple Powdery Mildew (Podosphaera leucotricha; Pl) The test is a direct anti-sporulant one using a foliar spray. The upper surfaces of leaves of whole seedlings are inoculated by spraying with an aqueous suspension containing 10^5 conidia/ml 2 days prior to treatment with the test compound. The inoculated plants are immediately dried and kept at glasshouse ambient temperatures and humidity prior to treatment. […] After drying the plants are returned to a compartment at ambient temperature and humidity for up to 9 days, followed by assessment. Assessment is based on the percentage of the leaf area covered by sporulation compared with that on leaves of control plants."}, "Plasmopara viticola [3]": {"test_system": "Plasmopara viticola", "test": "Antisporulant activity against vine downy mildew (Pva)", "assay_type": "in vivo", "conditions": "foliar spray, 1 kg/ha; activity grade 1 or 2, not defined", "protocol": "(j) Antisporulant Activity Against Vine Downy Mildew (Plasmopara viticola; Pva)\nThe test is a direct antisporulant one using a foliar spray. The lower surfaces of leaves of whole vine plants (cv Cabernet Sauvignon) are inoculated by spraying with an aqueous suspension containing 10^4 zoosporangia/ml 2 days prior to treatment with the test compound. The inoculated plants are kept for 24 hours in a high humidity compartment, and then 24 hours at glasshouse ambient temperature and humidity. When the plants are dry, infected leaves are sprayed on their lower surfaces with a solution of active material in 1:1 water/acetone containing 0.04% w/w \"Triton X-155\" (trade mark) (an octylphenol polyethoxylate surfactant). The spraying is carried out with a moving track sprayer with delivers 620 liter/ha, and the concentration of active material is calculated to give an application rate of 1 kg/ha. After spraying, the plants are returned to normal glasshouse conditions for 96 hours and are then transferred to the high humidity compartment for 24 hours to induce sporulation, prior to assessment. Assessment is visual and is based on the percentage of the leaf area covered by sporulation compared with that on control leaves."}, "Plasmopara viticola [4]": {"test_system": "Plasmopara viticola", "test": "Direct protectant activity against vine downy mildew (Pvp)", "assay_type": "in vivo", "parameters": "Pvp: direct protectant activity against vine downy mildew: scale not given here", "conditions": "foliar spray, 1 kg/ha; activity grade 1 or 2, not defined", "description": "(a) Direct Protectant Activity Against Vine Downy Mildew (Plasmopara viticola; Pvp)\nThe test is a direct protectant one, using a foliar spray. The lower surfaces of leaves of whole vine plants (cv Cabernet Sauvignon) are sprayed with a solution of active material in 1:1 v/v water/acetone containing 0.04% w \"Triton X-155\" (trade mark) (octylphenol polyoxyethylene surfactant), at a dosage of 1 kilogram of active material per hectare using a track sprayer which delivers 620 liters/ha, and after a subsequent 24 hours under normal glasshouse conditions the lower surfaces of the leaves are inoculated by spraying with an aqueous solution containing 10^4 zoosporangia/ml. The inoculated plants are kept for 24 hours in a high humidity compartment, 5 days under normal glasshouse conditions and then returned for a further 24 hours to high humidity. Assessment is based on the percentage of leaf area covered by sporulation compared with that on control leaves."}, "Alternaria Solani": {"test_system": "Alternaria Solani", "test": "Direct protectant activity against tomato early blight (As); further: dose 1000 g/ha", "assay_type": "in vivo", "parameters": "As: activity against tomato early blight: scale not given here", "conditions": "foliar spray as under (a), 8 days; activity grade 1 or 2, not defined", "protocol": "(g) Activity Against Tomato Early Blight (Alternaria Solani; As). The test is a direct protectant one using a foliar spray. The upper surfaces of leaves of young tomato plants are sprayed with a solution of active material as described in (a) above. After 24 hours under normal glasshouse conditions, the upper surfaces of the leaves are inoculated by spraying with an aqueous suspension containing 10^4 spores/ml. The inoculated plants are kept for 72 hours in a high humidity compartment and are then removed to lower humidity (50-70% relative humidity). Assessment is made 8 days after inoculation."}, "Plasmopara viticola [5]": {"test_system": "Plasmopara viticola", "test": "Translaminar protectant test, vine downy mildew (Pvt)", "assay_type": "in vivo", "conditions": "secondary screening", "description": "The fungicidal activity of certain of the compounds was investigated further, in secondary screening."}, "Leptosphaeria nodorum": {"test_system": "Leptosphaeria nodorum", "test": "Direct antisporulant activity against wheat leafspot (Ln)", "assay_type": "in vivo", "parameters": "scale not given here", "conditions": "foliar spray, 1 kg/ha; activity grade 1 or 2, not defined", "protocol": "(e) Activity Against Wheat Leafspot (Leptosphaeria nodorum; Ln) The test is a direct antisporulant one, using a foliar spray. Leaves of wheat plants ([…]), at the single leaf stage, are inoculated by spraying with an aqueous suspension containing 8×10^5 spores/mi. The inoculated plants are kept for 24 hours in a high humidity compartment prior to treatment. […] After drying, the plants are kept for 5 days under normal glasshouse conditions, followed by assessment. Assessment is based on the percentage of leaf area covered by sporulation compared with that on leaves of control plants."}, "Botrytis cinerea": {"test_system": "Botrytis cinerea", "test": "Direct protectant activity against vine grey mould (Bcp)", "assay_type": "in vivo", "conditions": "foliar spray, 1 kg/ha; activity grade 1 or 2, not defined", "description": "(b) Direct Protectant Activity Against Vine Grey Mould (Botrytis cinerea; Bcp) The test is a direct protectant one using a foliar spray and is effected as described under (a), with the difference that the leaves are inoculated by spraying with an aqueous solution containing 10^5 conidia/ml."}, "Pyricularia oryzae": {"test_system": "Pyricularia oryzae", "assay_type": "in vivo", "conditions": "foliar spray, 1 kg/ha; activity grade 1 or 2, not defined"}}}
{"smiles": "N#CN=[N+]([O-])c1ccccc1C(=O)O", "note": "[2-(cyano-N,N,O-azoxy)benzoic acid]", "values": [{"measurement": "antifungal activity", "setting": "fungi", "result": "no relevant activity against the tested fungi"}, {"measurement": "antibacterial activity", "setting": "bacteria", "result": "low activity against bacteria"}]}
{"smiles": "C[S+](C)[O-].N#CN=[N+]([O-])c1ccc(C(=O)O)cc1", "note": "[4-carboxyphenylazoxycyanide-dimethylsulphoxide]", "values": [{"measurement": "antifungal activity", "setting": "fungi", "result": "Antibacterial and antifungal properties"}, {"measurement": "antibacterial activity", "setting": "bacteria", "result": "Antibacterial and antifungal properties"}]}
{"smiles": "COC(=O)N=Nc1cccc2c1OC(C)(C)C2", "note": "[Example 31]", "values": [{"measurement": "Ph: activity against wheat eyespot", "setting": "[1]", "result": 1}, {"measurement": "Eg: activity against barley powdery mildew", "setting": "[2]", "result": 1}, {"measurement": "Fs: activity against seedling wheat blight", "setting": "Fusarium culmorum", "result": 1}, {"measurement": "Other: Pl, activity against apple powdery mildew", "setting": "Podosphaera leucotricha", "result": 1}]}
{"smiles": "COC(=O)N=Nc1cc(C)cc2c1OC(C)C2", "note": "(stereo not shown) [Example 33]", "values": [{"measurement": "Eg: activity against barley powdery mildew", "setting": "[2]", "result": 1}, {"measurement": "Other: Pva, antisporulant activity against vine downy mildew", "setting": "Plasmopara viticola [3]", "result": 1}, {"measurement": "Pvp: direct protectant activity against vine downy mildew", "setting": "Plasmopara viticola [4]", "result": 1}]}
{"smiles": "COC(=O)N=Nc1cc(Cl)c(C)c2c1OC(C)C2", "note": "(stereo not shown) [Example 35]", "values": [{"measurement": "Ph: activity against wheat eyespot", "setting": "[1]", "result": 1}, {"measurement": "Other: Pva, antisporulant activity against vine downy mildew", "setting": "Plasmopara viticola [3]", "result": 1}, {"measurement": "Pvp: direct protectant activity against vine downy mildew", "setting": "Plasmopara viticola [4]", "result": 1}]}
{"smiles": "COCC1Cc2c(Cl)c(C)cc(N=NC(=O)OC)c2O1", "note": "(stereo not shown) [Example 36]", "values": [{"measurement": "Ph: activity against wheat eyespot", "setting": "[1]", "result": 2}, {"measurement": "Eg: activity against barley powdery mildew", "setting": "[2]", "result": 2}, {"measurement": "Other: Pl, activity against apple powdery mildew", "setting": "Podosphaera leucotricha", "result": 2}, {"measurement": "Pvp: direct protectant activity against vine downy mildew", "setting": "Plasmopara viticola [4]", "result": 1}]}
{"smiles": "CCC1Cc2c(C)ccc(N=NC(=O)OC)c2O1", "note": "(stereo not shown) [Example 37]", "values": [{"measurement": "Ph: activity against wheat eyespot", "setting": "[1]", "result": 1}, {"measurement": "As: activity against tomato early blight", "setting": "Alternaria Solani", "result": 1}, {"measurement": "activity against Pvt", "setting": "Plasmopara viticola [5]", "result": "high activity"}, {"measurement": "Other: Pl, activity against apple powdery mildew", "setting": "Podosphaera leucotricha", "result": 1}, {"measurement": "Pvp: direct protectant activity against vine downy mildew", "setting": "Plasmopara viticola [4]", "result": 1}]}
{"smiles": "C=CCOC(=O)N=Nc1ccc(C)c2c1OC(C)CC2", "note": "(stereo not shown) [Example 40]", "values": [{"measurement": "Ln: activity against wheat leafspot", "setting": "Leptosphaeria nodorum", "result": 1}, {"measurement": "Other: Pl, activity against apple powdery mildew", "setting": "Podosphaera leucotricha", "result": 2}]}
{"smiles": "COC(=O)N=[N+]([O-])c1cccc2c1OC(C)(C)C2", "note": "[Example 43]", "values": [{"measurement": "Ph: activity against wheat eyespot", "setting": "[1]", "result": 2}, {"measurement": "activity against Ph", "setting": "[1]; secondary screening", "result": "high activity"}, {"measurement": "Eg: activity against barley powdery mildew", "setting": "[2]", "result": 2}, {"measurement": "Bcp: direct protectant activity against vine grey mould", "setting": "Botrytis cinerea", "result": 1}, {"measurement": "Other: Pl, activity against apple powdery mildew", "setting": "Podosphaera leucotricha", "result": 1}]}
{"smiles": "COC(=O)N=[N+]([O-])c1ccc(C)c2c1OC(C)CC2", "note": "(stereo not shown) [Example 46]", "values": [{"measurement": "Ph: activity against wheat eyespot", "setting": "[1]", "result": 2}, {"measurement": "Eg: activity against barley powdery mildew", "setting": "[2]", "result": 2}, {"measurement": "As: activity against tomato early blight", "setting": "Alternaria Solani", "result": 2}, {"measurement": "Ln: activity against wheat leafspot", "setting": "Leptosphaeria nodorum", "result": 2}, {"measurement": "Other: Po, activity against rice leaf blast", "setting": "Pyricularia oryzae", "result": 2}, {"measurement": "Pvp: direct protectant activity against vine downy mildew", "setting": "Plasmopara viticola [4]", "result": 2}]}
{"smiles": "COC(=O)c1ccc([N+]([O-])=NC#N)cc1", "note": "[calvatic acid methyl ester]", "values": [{"measurement": "antifungal activity", "setting": "fungi", "result": "antibacterial and antifungal activity"}, {"measurement": "antibacterial activity", "setting": "bacteria", "result": "antibacterial and antifungal activity"}]}
{"smiles": "N#CN=[N+]([O-])c1ccc(C(=O)O)cc1", "note": "[calvatic acid, 4 -(cyano-N,N,O-azoxy) benzoic acid]", "values": [{"measurement": "antifungal activity", "setting": "fungi", "result": "antibacterial and antifungal activity"}, {"measurement": "antibacterial activity", "setting": "bacteria", "result": "antibacterial and antifungal activity"}]}
